Tests used:
Type in all cases: in vivo
WEED [1] = assay: Field test applied 7 DAS in direct seeded rice in the Philippines, weed cover (Table 14); settings: 47 DAA
Text: (§1) Methyl 2-[[[[(4-methoxy-6-methyl-1,3,5-triazin-2-yl)amino]carbonyl]amino]sulfonyl]benzoate (Compound 1) and mixtures thereof with other compounds were applied as a spray (using a hand sprayer) to rice (either transplanted or direct seeded) in several rice growing areas in Southeast Asia and in the U.S. Tables 1-28 contain the results of these tests and clearly exemplify the utility of this invention. The details of each application are included in the appropriate table. [drawing 2]

[2] = tested on: Barnyardgrass (Echinochloa crus-galli); assay: Field test applied 7 DAS in direct seeded rice in the Philippines, cover (Table 14); settings: 47 DAA
Text: as §1

SEDGE = assay: as above; settings: 47 DAA
Text: as §1

Cyperus difformis = assay: Herbicidal efficacy with Bensulfuron methyl and 2,4-D in Thailand (Table 18); settings: 13 days after treatment
Text: as §1

Sphenoclea zeylanica [3] = assay: as above; settings: 13 days after treatment
Text: as §1

rice [4] = assay: as above; settings: 13 days after treatment
Text: as §1

Cuperus difformis = assay: Herbicidal efficacy with Bensulfuron methyl and 2,4-D in Thailand (Table 19); settings: 13 days after treatment
Text: as §1

Ludwigia linifolia [5] = assay: as above; settings: 13 days after treatment
Text: as §1

Sphenoclea zeylanica [6] = assay: as above; settings: 13 days after treatment
Text: as §1

rice [7] = assay: as above; settings: 13 days after treatment
Text: as §1

Cuperus iria = assay: Herbicidal efficacy with Bensulfuron methyl and 2,4-D in Thailand (Table 20); settings: 14 days after treatment
Text: as §1

FIMBRISTYLIS MILIACEA = assay: as above; settings: 14 days after treatment
Text: as §1

Ludwigia linifolia [8] = assay: as above; settings: 14 days after treatment
Text: as §1

Sphenoclea zeylanica [9] = assay: as above; settings: 14 days after treatment
Text: as §1

rice [10] = assay: as above; settings: 14 days after treatment
Text: as §1

rice [11] = assay: Effects in combination with Bensulfuron Methyl and Thiobencarb or Pretilachlor on rice growth (Table 23); settings: rate 25 g ai/ha; var. Koshihikari, applied 7 days after transplanting, rated 21 days after application
Text: as §1

WEED [12] = assay: Effects in combination with Bensulfuron Methyl and Thiobencarb or Pretilachlor on weed control (Table 24); settings: rate 25 g ai/ha, scale 0 to 10, treated at 1.0 leaf stage, evaluated four weeks later
Text: as §1

WEED [13] = assay: Effects in combination with Bensulfuron Methyl and Thiobencarb or Pretilachlor on weed control (Table 25); settings: rate 25 g ai/ha, scale 0 to 10, treated at 2.0 leaf stage, evaluated four weeks later
Text: as §1

SMILES: COC(=O)c1ccccc1CS(=O)(=O)NC(=O)Nc1nc(OC)cc(OC)n1 [Bensulfuron methyl, methyl 2-[[[[[(4,6-dimethoxy-2-pyrimidinyl)amino]carbonyl]amino]sulfonyl]methyl]benzoate]
- % WEED COVER (WEED [1]; 12.0 G AI/HA): 20%
- % WEED COVER (WEED [1]; 16.50 G AI/HA): 28%
- % BYG COVER ([2]; 8.25 G AI/HA): 29%
- % BYG COVER ([2]; 12.0 G AI/HA): 17%
- % BYG COVER ([2]; 16.50 G AI/HA): 28%
- % SEDGE COVER (SEDGE; 8.25 G AI/HA): 4%
- % SEDGE COVER (SEDGE; 12.0 G AI/HA): 2%
- % SEDGE COVER (SEDGE; 16.50 G AI/HA): 2%
- % CONTROL OR INJURY CD (Cyperus difformis; 10 GAI/HA): 100%
- % CONTROL OR INJURY CD (Cyperus difformis; 15 GAI/HA): 100%
- % CONTROL OR INJURY CD (Cyperus difformis; 20 GAI/HA): 100%
- % CONTROL OR INJURY SZ (Sphenoclea zeylanica [3]; 10 GAI/HA): 99%
- % CONTROL OR INJURY SZ (Sphenoclea zeylanica [3]; 15 GAI/HA): 100%
- % CONTROL OR INJURY SZ (Sphenoclea zeylanica [3]; 20 GAI/HA): 100%
- % CONTROL OR INJURY RICE (rice [4]; 10 GAI/HA): 0%
- % CONTROL OR INJURY RICE (rice [4]; 15 GAI/HA): 0%
- % CONTROL OR INJURY RICE (rice [4]; 20 GAI/HA): 0%
- % CONTROL OR INJURY CD (Cuperus difformis; 10 GAI/HA): 100%
- % CONTROL OR INJURY CD (Cuperus difformis; 15 GAI/HA): 100%
- % CONTROL OR INJURY CD (Cuperus difformis; 20 GAI/HA): 100%
- % CONTROL OR INJURY LL (Ludwigia linifolia [5]; 10 GAI/HA): 100%
- % CONTROL OR INJURY LL (Ludwigia linifolia [5]; 15 GAI/HA): 100%
- % CONTROL OR INJURY LL (Ludwigia linifolia [5]; 20 GAI/HA): 100%
- % CONTROL OR INJURY SZ (Sphenoclea zeylanica [6]; 10 GAI/HA): 88%
- % CONTROL OR INJURY SZ (Sphenoclea zeylanica [6]; 15 GAI/HA): 100%
- % CONTROL OR INJURY SZ (Sphenoclea zeylanica [6]; 20 GAI/HA): 100%
- % CONTROL OR INJURY RICE (rice [7]; 10 GAI/HA): 0%
- % CONTROL OR INJURY RICE (rice [7]; 15 GAI/HA): 0%
- % CONTROL OR INJURY RICE (rice [7]; 20 GAI/HA): 0%
- % CONTROL OR INJURY CI (Cuperus iria; 10 GAI/HA): 77%
- % CONTROL OR INJURY CI (Cuperus iria; 15 GAI/HA): 90%
- % CONTROL OR INJURY CI (Cuperus iria; 20 GAI/HA): 95%
- % CONTROL OR INJURY FM (FIMBRISTYLIS MILIACEA; 10 GAI/HA): 80%
- % CONTROL OR INJURY FM (FIMBRISTYLIS MILIACEA; 15 GAI/HA): 100%
- % CONTROL OR INJURY FM (FIMBRISTYLIS MILIACEA; 20 GAI/HA): 100%
- % CONTROL OR INJURY LL (Ludwigia linifolia [8]; 10 GAI/HA): 80%
- % CONTROL OR INJURY LL (Ludwigia linifolia [8]; 15 GAI/HA): 80%
- % CONTROL OR INJURY LL (Ludwigia linifolia [8]; 20 GAI/HA): 87%
- % CONTROL OR INJURY SZ (Sphenoclea zeylanica [9]; 10 GAI/HA): 23%
- % CONTROL OR INJURY SZ (Sphenoclea zeylanica [9]; 15 GAI/HA): 60%
- % CONTROL OR INJURY SZ (Sphenoclea zeylanica [9]; 20 GAI/HA): 53%
- % CONTROL OR INJURY RICE (rice [10]; 10 GAI/HA): 0%
- % CONTROL OR INJURY RICE (rice [10]; 15 GAI/HA): 0%
- % CONTROL OR INJURY RICE (rice [10]; 20 GAI/HA): 0%
- CROP TOLERANCE DW (Dry weight relative to untreated check) (rice [11]): 79%
- CROP TOLERANCE PH (Plant height relative to untreated check) (rice [11]): 89%
- CROP TOLERANCE VA (Visual crop injury) (rice [11]): 2.5%
- WEED CONTROL RATINGS CD (WEED [12]; Cyperus difformis): 1
- WEED CONTROL RATINGS CS (WEED [12]; Cyperus serotinus): 6
- WEED CONTROL RATINGS EO (WEED [12]; Echinochloa oryzicola): 1
- WEED CONTROL RATINGS BL (WEED [12]; Lindernia pyxidaria): 10
- WEED CONTROL RATINGS MV (WEED [12]; Monochoria vaginalis): 10
- WEED CONTROL RATINGS SP (WEED [12]; Sagittaria pygmaea): 8.5
- WEED CONTROL RATINGS SJ (WEED [12]; Scirpus juncoides): 5
- WEED CONTROL RATINGS CD (WEED [13]; Cyperus difformis): 10
- WEED CONTROL RATINGS CS (WEED [13]; Cyperus serotinus): 2
- WEED CONTROL RATINGS EO (WEED [13]; Echinochloa oryzicola): 1
- WEED CONTROL RATINGS BL (WEED [13]; Lindernia pyxidaria): 9
- WEED CONTROL RATINGS MV (WEED [13]; Monochoria vaginalis): 9
- WEED CONTROL RATINGS SP (WEED [13]; Sagittaria pygmaea): 8
- WEED CONTROL RATINGS SJ (WEED [13]; Scirpus juncoides): 5
